Measured values: patent US6469127B1, “Polycarbonate resin having low tendency of releasing environmental endocrine disruptors” (Space Environmental Technology Company, Inc,, priority 1999, dated 2002)

Target: T1, Estrogen Receptor (Homo sapiens, UniProt P03372)
T1 sequence (P03372 1-595): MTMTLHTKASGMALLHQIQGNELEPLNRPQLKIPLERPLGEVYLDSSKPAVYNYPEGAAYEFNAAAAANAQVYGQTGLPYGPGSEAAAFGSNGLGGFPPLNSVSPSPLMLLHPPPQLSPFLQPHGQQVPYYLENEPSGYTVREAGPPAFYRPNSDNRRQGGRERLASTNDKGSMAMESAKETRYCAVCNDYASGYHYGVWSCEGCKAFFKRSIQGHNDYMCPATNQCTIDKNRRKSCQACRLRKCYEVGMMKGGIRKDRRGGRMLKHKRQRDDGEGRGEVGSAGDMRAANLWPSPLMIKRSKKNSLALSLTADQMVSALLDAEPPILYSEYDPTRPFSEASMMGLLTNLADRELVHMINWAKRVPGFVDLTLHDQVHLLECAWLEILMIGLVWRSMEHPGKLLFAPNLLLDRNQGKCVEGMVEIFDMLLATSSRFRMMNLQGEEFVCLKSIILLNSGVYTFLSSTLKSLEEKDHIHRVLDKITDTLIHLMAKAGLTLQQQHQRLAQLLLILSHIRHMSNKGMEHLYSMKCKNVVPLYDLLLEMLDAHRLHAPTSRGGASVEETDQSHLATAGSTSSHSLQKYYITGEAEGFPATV
Experiment: Tendency to link to estrogen receptor (IC50 of bisphenols and reference compounds, Table 1)
Assay type: binding
Conditions: concentration required to substitute 50% of genuine hormone linked to receptor

For CCCCCCCCCc1ccc(O)cc1 [4-Nonylphenol], which IC50 is on record?
The IC50 was 3.9 µM.
